Experimental data as given in ChEMBL document CHEMBL3351855, “Synthesis and biological evaluation of (-)-6-O-desmethylcryptopleurine and analogs” (Bioorg Med Chem Lett, 2015).

How the values were obtained:
Assay type in all cases: functional, cell-based
[1] = tested on: A549; test: Antiproliferative activity against human A549 cells after 72 hrs by ATPlite assay; conditions: A549, 72 h
[2] = Antiproliferative activity against human HCT116 cells after 72 hrs by ATPlite assay; conditions: HCT-116, 72 h
[3] = tested on: A-375; test: Antiproliferative activity against human A375 cells after 72 hrs by ATPlite assay; conditions: A-375, 72 h
[4] = Antiproliferative activity against human NAMALWA cells after 72 hrs by ATPlite assay; conditions: NAMALVA

| SMILES | IC50 [1] | IC50 [2] | IC50 [3] | IC50 [4] |
| --- | --- | --- | --- | --- |
| COc1cc2c3c(c4ccc(O)cc4c2cc1OC)CN1CCC[C@@H]1C3 | 1 nM |  |  |  |
| COc1cc2c3c(c4ccc(O)cc4c2cc1OC)CN1CCCC[C@@H]1[C@@H]3O | 1.4 nM | 0.3 nM | 0.3 nM | 1.1 nM |
| COc1ccc2c3c(c4cc(OC)c(OC)cc4c2c1)C[C@H]1CCCCN1C3 [CRYPTOPLEURINE] |  | 0.7 nM | 1.2 nM | 2.6 nM |
| COc1cc2c3c(c4ccc(O)cc4c2cc1OC)CN1CCCC[C@@H]1C3=O | 65 nM | 21 nM | 56 nM | 60 nM |
| COc1cc2c3c(c4ccc(O)cc4c2cc1OC)CN1CCCC[C@@H]1C3 | 2.5 nM | 1.4 nM | 1.6 nM | 4.1 nM |
| COc1ccc2c3c(c4cc(OC)c(OC)cc4c2c1)C[C@H]1CCCN1C3 [(-)-ANTOFINE] | 10 nM |  |  |  |
